Patent US20120171126A1, “NOVEL [3,2-c] HETEROARYL STEROIDS AS GLUCOCORTICOID RECEPTOR AGONISTS COMPOSITIONS AND USES THEREOF” (priority 2009, published 2012)
pIC50: −log10 of the molar value. Where two headings read alike, the source gives them in different places.

Assays:
IL-8 = test: Glucocorticoid transrepression assay, IL-8 inhibition (TR); type: cell-based; conditions: Homo sapiens
Outline: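 Human lung epithelial NCI-H292 cells at 75-90% confluence were pretreated with steroid or antagonist for 1 h at 37 °C. TNFα was then added at 10 ng/ml final and cells were incubated overnight, with 10 μM dexamethasone as the maximum-inhibition control. Secreted IL-6 and IL-8 were measured in the medium by MSD multi-spot immunoassay.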

[1] = test system: human glucocorticoid response element coupled with a luciferase reporter gene; test: GRE-transactivation assay (HeLa-GRE luciferase, TA); type: cell-based
Procedure: HeLa cells were stably transfected with a human glucocorticoid response element coupled with a luciferase reporter gene. Cells were plated in 96 well Packard View Plates (black sides/ clear bottom) at 20 K cells/0.2 ml complete medium. Plates were incubated overnight at 37°/5% CO2. Medium was aspirated and replaced with 150 μl medium containing 5% charcoal-treated FBS and cells incubated overnight again. Test compounds were prepared in 5% charcoal-treated FBS medium. Medium was aspirated from plates and replaced with 100 μl of test compounds or controls. Plates were returned to incubator for exactly 24 hours. To measure induced luciferase, 100 μl of Steady-Glo luciferase assay substrate (Promega) was added to each well. Plates were sealed and mixed on a plate shaker for 5 minutes. Plate bottom opaque seals were added and the plates were allowed to stand for 60 minutes. Luminescence was measured on a Top-Count instrument (Perkin-Elmer).

IL-6 = test: Glucocorticoid transrepression assay, IL-6 inhibition (TR); type: cell-based; conditions: Homo sapiens; Table 4; NCl-H292 cells, TNFα 10 ng/ml
Procedure: Human Lung epithelial cell line NCl-H292 cells were dissociated from stock flask using 0.05% trypsin/0.53 mM EDTA. Cells were suspended in complete medium and counted. Cells were plated in 96-well flat-bottom plates at 20K cells /well in 0.2 ml/well. Plates were incubated for 24-48 hours until cells were between 75-90% confluent. Medium was aspirated and replaced with medium containing various concentrations of steroids or antagonists. After 1 hour incubation at 37°, TNFα (10 ng/ml final concentration in 0.2 ml) was added and the cells incubated overnight. Control wells with and without TNF were included on each plate, as well as wells with TNF in addition to a maximum (10 μM) concentration of dexamethasone. The cell culture medium was sampled and IL-6 and IL-8 cytokine production was measured using the MSD Multi-Spot immunoassay.

[2] = symptoms associated with chronic nasal congestion; cited from earlier work
[3] = Table 1, NCl-H292 cells, TNFα 10 ng/ml
[4] = Table 1, NCl-H292 cells, TNFα 10 ng/ml, read-out: IL-8 inhibition (TR) Emax % inhibition
[5] = HeLa cells, 24 hours, luciferase, read-out: EMAX value, GRE-transactivation assay

In the case of CC12Cc3cnn(-c4ccc(F)cc4)c3C=C1CCC1C2[C@@H](O)CC2(C)C1CC[C@]2(O)C(=O)CSc1nc2ccccc2s1 (stereo partly drawn) [Compound 1], the pIC50 (IL-8; [3]) was 7.70 to 10.22, the Emax (IL-8; [4]) was over 80% and the Emax [1, 5] was 71%.

For CC12Cc3cnn(-c4ccc(F)cc4)c3C=C1CCC1C2[C@@H](O)CC2(C)C1CC[C@]2(O)C(=O)Cn1cc(-c2ccccc2)cn1 (stereo partly drawn) [Compound 1], the Emax [1, 5] was 69%.

Work on C[C@]12Cc3cnn(-c4ccc(F)cc4)c3C=C1CCC1C2[C@@H](O)C[C@@]2(C)C1CC[C@]2(OC(=O)c1ccco1)C(=O)SCc1ccc(-c2ccccn2)cc1 (stereo partly drawn) [Compound 1] yielded an Emax (IL-6) of over 80% and a pIC50 (IL-6) of 7.70 to 10.22.

With C[C@]12Cc3cnn(-c4ccc(F)cc4)c3C=C1CCC1C2[C@@H](O)C[C@@]2(C)C1CC[C@]2(OC(=O)c1ccco1)C(=O)SCc1ccc2ccccc2n1 (stereo partly drawn) [Compound 2] the Emax (IL-6) was over 80% and the pIC50 (IL-6) was 7.70 to 10.22.

For C[C@]12Cc3cnn(-c4ccc(F)cc4)c3C=C1CCC1C2[C@@H](O)C[C@@]2(C)C1CC[C@]2(OC(=O)c1ccco1)C(=O)SCc1nc2ccccc2o1 (stereo partly drawn) [Compound 3], the Emax (IL-6) was over 80% and the pIC50 (IL-6) was 7.70 to 10.22.

With C[C@]12Cc3cnoc3C=C1CCC1C2[C@@H](O)C[C@@]2(C)C1CC[C@]2(O)C(=O)Nc1nc2cccnc2s1 (stereo partly drawn) [Compound 4-1] the Emax (IL-8; text value for compound 4-1, only a % value printed, read-out: IL-8 inhibition(TR) IC50/Emax(nM, % inhibition)) was 23% and the Emax ([1]; text value for compound 4-1, only a % value printed, read-out: H Hela-GRE luciferase(TA) IC50/Emax(nM, % inhibition)) was 0%.

Molecule C[C@]12Cc3cnn(-c4ccc(F)cc4)c3C=C1CCC1C2[C@@H](O)C[C@@]2(C)C1CC[C@]2(OC(=O)c1ccco1)C(=O)SCc1cccc(N2CCCC2)n1 (stereo partly drawn) [Compound 4] has an Emax (IL-6) of over 80% and a pIC50 (IL-6) of 7.70 to 10.22.

CC12Cc3cnn(CCC#N)c3C=C1CCC1C2[C@@H](O)CC2(C)C1CC[C@]2(O)C(=O)CSc1ccccn1 (stereo partly drawn) [Compound 60] showed a pIC50 (IL-8; [3]) of 6.40 to 7.18, an Emax (IL-8; [4]) of under 60% and an Emax [1, 5] of 15%.

CC12Cc3cnn(C4CCOCC4)c3C=C1CCC1C2[C@@H](O)CC2(C)C1CC[C@]2(O)C(=O)CSc1nc2cccnc2s1 (stereo partly drawn) [Compound 71] gave a pIC50 (IL-8; [3]) of 6.40 to 7.18, an Emax (IL-8; [4]) of over 80% and an Emax [1, 5] of 85%.

With CC12Cc3cnn(C4CCOCC4)c3C=C1CCC1C2[C@@H](O)CC2(C)C1CC[C@]2(O)C(=O)CSc1ccc2ccccc2n1 (stereo partly drawn) [Compound 74] the pIC50 (IL-8; [3]) was 6.40 to 7.18, the Emax (IL-8; [4]) was 70 to 80% and the Emax [1, 5] was 56%.

Cn1c(SCC(=O)[C@@]2(O)CCC3C4CCC5=Cc6c(cnn6-c6ccc(F)cc6)CC5(C)C4[C@@H](O)CC32C)nc2cc(S(N)(=O)=O)ccc21 (stereo partly drawn) [Compound 123] gave a pIC50 (IL-8; [3]) of 7.70 to 10.22 and an Emax (IL-8; [4]) of over 80%.

In the case of CC12Cc3cnn(C4CCCCC4)c3C=C1CCC1C2[C@@H](O)CC2(C)C1CC[C@]2(O)C(=O)CSc1ncccn1 (stereo partly drawn) [Compound 126], the pIC50 (IL-8; [3]) was 7.70 to 10.22 and the Emax (IL-8; [4]) was over 80%.

With Cc1nc(SCC(=O)[C@@]2(O)CCC3C4CCC5=Cc6c(cnn6C6CCCCC6)CC5(C)C4[C@@H](O)CC32C)sc1C (stereo partly drawn) [Compound 130] the pIC50 (IL-8; [3]) was 7.70 to 10.22 and the Emax (IL-8; [4]) was over 80%.

For Cc1ccnc(SCC(=O)[C@@]2(O)CCC3C4CCC5=Cc6c(cnn6C6CCCCC6)CC5(C)C4[C@@H](O)CC32C)n1 (stereo partly drawn) [Compound 131], the pIC50 (IL-8; [3]) was 7.70 to 10.22, the Emax (IL-8; [4]) was over 80% and the Emax [1, 5] was 83%.

For CC12Cc3cnn(C4CCCCC4)c3C=C1CCC1C2[C@@H](O)CC2(C)C1CC[C@]2(O)C(=O)CSc1nc(-c2ccccc2)cs1 (stereo partly drawn) [Compound 133], the pIC50 (IL-8; [3]) was 7.19 to 7.68 and the Emax (IL-8; [4]) was over 80%.

In the case of Oc1cccc(Nc2ncc(F)c(Nc3cccc(O)c3)n2)c1 [Compound R112], the “absolute difference over placebo” value [2] is given as 9%, the “improvement from baseline measurements (prior to drug initiation)” value [2] is given as “up to 38%” and the “relative improvement over placebo” value [2] is given as “greater than 20%”.

Molecule C[C@@H]1C[C@H]2[C@@H]3CCC4=CC(=O)C=C[C@]4(C)[C@@]3(F)[C@@H](O)C[C@]2(C)[C@@]1(O)C(=O)CO [dexamethasone, reference compound] has an Emax [1, 5] of 100%.

Molecule CCC(=O)O[C@]1(C(=O)SCF)[C@H](C)C[C@H]2[C@@H]3C[C@H](F)C4=CC(=O)C=C[C@]4(C)[C@@]3(F)[C@@H](O)C[C@@]21C [fluticasone propionate, reference compound] has an Emax [1, 5] of 99%.
